Series [1] relates to Vero cells (kidney fibroblast). Put plainly: Cytotoxicity to Vero cells. In kind it is cell-based.
The test system of series [2] is methicillin-resistant Staphylococcus aureus ATCC 33591 (MRSA). The series can be described thus: Antimicrobial assay, methicillin-resistant Staph. aureus. Conditions: ATCC33591|MRSA. In kind it is cell-based.
Series [3] concerns bentgrass (Agrostis stolonifera). Put plainly: Phytotoxicity assay, bentgrass. As to conditions: 1 mg/mL; visual ranking on scale of 0 to 5; in the presence of light.
Series [4] relates to Staphylococcus aureus ATCC 29213. Put plainly: Antimicrobial assay, methicillin-sensitive Staph. aureus. In kind it is cell-based. Conditions: ATCC29213.
For series [5], the system named is lettuce (Lactuca sativa cv. L., Iceberg). Put plainly: Phytotoxicity assay, lettuce. As to conditions: 1 mg/mL; visual ranking on scale of 0 to 5; in the presence of light.
Series [6] relates to Leishmania donovani promastigotes. The series can be described thus: Antileishmanial assay. Conditions: read-out: Antileishmanial activity IC90. In kind it is cell-based.
In series [7] the test system is Plasmodium falciparum D6 (chloroquine sensitive) strain. The series can be described thus: Antiplasmodial assay, chloroquine-sensitive. In kind it is cell-based. As to conditions: selectivity index = IC50 for cytotoxicity (Vero)/IC50 for antiplasmodial activity.
Series [8] concerns Plasmodium falciparum W2 (chloroquine resistant) strain. The series can be described thus: Antiplasmodial assay, chloroquine-resistant. As to conditions: selectivity index = IC50 for cytotoxicity (Vero)/IC50 for antiplasmodial activity. In kind it is cell-based.

Converted amounts (≈) assume the structure as drawn. Where only a bound is given, the exact number is not on record here.

In the case of “13-(R)-hydroxy-N-(O-methyl)septoriamycin A [Compound 4]”, in series [1], the “Cytotoxicity to Vero cells IC50” value is reported as “no antimicrobial, antifungal, antiprotozoal, phytotoxic, or cytotoxic activity”.

In general, MIC refers to the lowest concentration found to suppress growth. Read a low MIC as inhibition by little substance. Regarding `COc1c(C[C@@H](C)O)c2c3c(C[C@@H](C)O)c(OC)c(=O)c4c(O)cc5c(c6c(cc(O)c(c1=O)c62)OCO5)c43` [Compound 5, (+)-cercosporin], the MIC was 5 ng/mL (≈ 9.35 nM) in series [2] and 2.5 ng/mL (≈ 4.68 nM) in series [4]. The “Phytotoxic activity ranking, bentgrass” value in series [3] is listed as 2. Further, the “Phytotoxic activity ranking, lettuce” value in series [5] is listed as 3.

What is called IC90 is the concentration at which the effect reaches the 90% level. Regarding `COc1c(C[C@@H](C)OC(C)=O)c2c3c(C[C@@H](C)O)c(OC)c(=O)c4c(O)cc5c(c6c(cc(O)c(c1=O)c62)OCO5)c43` [Compound 6, (+)-14-O-acetylcercosporin], in series [3], the “Phytotoxic activity ranking, bentgrass” value is 4. Also, in series [6], the IC90 was found to be 8.5 µM. Besides, in series [5], the “Phytotoxic activity ranking, lettuce” value was 2.

Consider `COc1c(C[C@@H](C)OC(C)=O)c2c3c(C[C@@H](C)OC(C)=O)c(OC)c(=O)c4c(O)cc5c(c6c(cc(O)c(c1=O)c62)OCO5)c43` [Compound 7, (+)-di-O-acetylcercosporin], for which, in series [3], the “Phytotoxic activity ranking, bentgrass” value is recorded as 4. Further, in series [5], the “Phytotoxic activity ranking, lettuce” value was found to be 3.

With `CC[C@@H](C)[C@H]1O[C@@H](c2c(OC)c(-c3ccccc3)c[n+]([O-])c2OC)[C@H](C)C[C@@H]1C` [Compound 10c], in series [7], the “Chloroquine-sensitive (D6)-clone S.I.” value is given as over 1.1. Moreover, the “Chloroquine-resistant (W2)-clone S. I.” value in series [8] is recorded as over 1.2.

(Values after PMC3361971 (Journal of Natural Products, 2012).)
